Assay results published in patent US11918572B2, “Pharmaceutical compositions for treating pain” (REBEL MEDICINE INC, priority 2022, dated 2024).

Assays:
[1] = controlled release of drug from the formulation (dialysis bag in PBS sink, UV 272 nm); type: physicochemical
Method: (§1) The controlled release of the formulation was evaluated where 0.5 mL of the formulation was placed into a dialysis bag (10 kDa) and submerged in 50 mL sink of phosphate buffered saline (1×; pH 7.4). The samples were placed into a rotating incubator (1 Hz) at 37° C. At designated timepoints, 2 mL of saline was removed and analyzed using ultraviolet visible spectrophotometry (272 nm). The entire sink medium was replaced at each timepoint until drug no longer eluted out of the system.
as §1, with “The release of bupivacaine is shown in a formulation including MCT oil and glycerol monostearate as a structuring agent with and without the presence of an anion to increase hydrophobicity. […] The controlled” for “The controlled”, “buffered saline (lx; pH 7.4).” for “buffered saline (1×; pH 7.4).”

[2] = max solubility of bupivacaine in oil (37° C. overnight, centrifuge, UV 272 nm)
Method: The solubility of bupivacaine in a blend of MCT oil and castor oil was studied. […] The max solubility of the oil blends was determined by adding 300 mg of bupivacaine free base into 3 mL of an MCT: castor oil mixture. […] After rotating, samples were spun in a centrifuge at 2000×g for 5 minutes. Next, 30 uL of sample supernatant was taken and dissolved to 1470 uL of ethanol and analyzed using ultraviolet visible spectrophotometry (272 nm).

[3] = solubility of ropivacaine forms in lipophilic oils; type: physicochemical

CCCCC(CC)COC(=O)CC(C(=O)OCC(CC)CCCC)S(=O)(=O)O.CCCCN1CCCCC1C(=O)Nc1c(C)cccc1C (stereo not drawn) [bupivacaine with docusate, bupivacaine docusate]
release of bupivacaine with and without an anion ([1]; FIG. 13, MCT oil and glycerol monostearate, PBS pH 7.4, 37° C.): prolonged

CCCCN1CCCCC1C(=O)Nc1c(C)cccc1C (stereo not drawn) [bupivacaine]
drug release with specific blends of oil ([1]; MCT oil:castor oil blends): slows
drug solubility in castor oil versus MCT [2]: higher drug solubility in castor oil than MCT
solubility of bupivacaine (drug loading) in blends of MCT oil and castor oil ([2]; FIG. 11, 37° C. overnight): drug loading increases with specific blends of oil

CCCCC(CC)COC(=O)CC(C(=O)OCC(CC)CCCC)S(=O)(=O)O.CCCN1CCCCC1C(=O)Nc1c(C)cccc1C (stereo not drawn) [ropivacaine docusate]
solubility in lipophilic oils such as medium-chain triglycerides [3]: suitable solubility

CCCN1CCCC[C@H]1C(=O)Nc1c(C)cccc1C [ropivacaine]
solubility in lipophilic oils such as medium-chain triglycerides [3]: poor solubility
